Patent US12551576B2, “Chemiluminescent probes” (The General Hospital Corporation, priority 2020, dated 2026)
Blank lines part the entries; values can stand above or below the compound they belong to.

How the values were obtained:
[1] = Fluorescence and chemiluminescence spectral studies; type: physicochemical
Procedure: Materials and Methods: reagents used for the synthesis were purchased from Sigma-Aldrich and used without further purification. Column chromatography was performed on a glass column slurry-packed with silica gel (60 Å, […]; SiliCycle Inc.). Recombinant Aβ peptide (1-40/42) were purchased from rPeptide (A-1163-1). Aβ aggregates for in vitro studies were generated by slow stirring of Aβ40 in PBS buffer for 3 days at room temperature. ^1H and ^13C NMR spectra were recorded at 500 MHz and 125 MHz on Bruker spectrometers in CDCl3, CD3OD or DMSO-d6 solutions at room temperature with tetramethylsilane (TMS, δ=0) as an internal standard. Liquid chromatography-mass spectrometry (LC-MS) was performed using an Agilent 1200 Series apparatus with an LC/MSD trap and Daly conversion dynode detector with UV detection at 254 nm. Fluorescence measurements were carried out using an F-7100 fluorescence spectrophotometer (Hitachi). Transgenic female 5×FAD mice and age-matched wild-type female mice were purchased from Jackson Laboratory. All animal experiments were approved by the Institutional Animal Use and Care Committee at Massachusetts General Hospital. The IVIS Spectrum animal imaging system (PerkinElmer) was used for in vitro and in vivo imaging.
Fluorescence spectral studies: Normally, all chemiluminescent molecules are fluorescent. The excitation and emission spectra of ADLumin-X were recorded and the emission peak of ADLumin-1 was around 590 nm (FIG. 1D) in DMSO, which is considerably longer than most of the commercially available chemiluminescence probes. The emission of ADLumin-2 is longer than that of ADLumin-1, due to its additional double-bond. (the emission peak of ADLumin-2 was 20 nm longer). […] Based on this fact, ADLumin-1 was used throughout this example, due to its high QY.
Chemiluminescence spectral studies: ADLumin-1 is stable in PBS buffer and organic solvents, including acetonitrile, dichloromethane and methanol. […] Without being bound by any theory, it is believed that the luminescence was due to the auto-oxidation of ADLumin-1. Although the mechanism of chemiluminescence of IPO derivatives has been studied, the mechanism of auto-oxidation has been rarely explored. In the course of the experiments, ADLumin-1 emitted very strong luminescence in pure DMSO (FIG. 2b). Unexpectedly, if the ADLumin-1 DMSO solution was stirred, even stronger luminescence can be detected (3.4-fold in FIG. 2b). Without being bound by any theory, it is believed that the luminescence was related to oxygen levels in DMSO. […] However, the increasing-fold decreased with cycles (FIG. 2c). […] Since no ROS were added into the DMSO solution, it is reasonable to infer that the auto-oxidation of ADLumin-1 was oxygen-level dependent. It is worthy to note that green fluorescent protein and luciferase/luciferin also dependent on oxygen for their proper imaging functions.

PA-K2 = assay: ThT fluorescence test with PA-K and PA-K2; type: binding
misfoldons in serum = assay: ThT test of misfoldons in serum; parameters: species or system human; settings: some misfoldons
Excerpt: However, the detected difference was much smaller than that by ADLumin-1.

Aβ40 aggregates = Aβ40 aggregates (Homo sapiens, UniProt P05067); assay: In vitro chemiluminescence study with Aβ aggregates in PBS; type: binding; settings: pH 7.4
Sequence of Aβ40 aggregates (P05067 672-711 limits assumed): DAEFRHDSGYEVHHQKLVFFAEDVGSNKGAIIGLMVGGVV

quantum yield ratio ΦADLumin-1/ΦADLumin-2 [1]: 1.5
emission peak longer than that of ADLumin-1 ([1]; fluorescence, DMSO): 20 nm
Compound: Cc1nc2c[nH]c(/C=C/C=C/C=C/c3ccc(N(C)C)cc3)cn-2c1=O [ADLumin-2, 6-((1E,3E,5E)-6-(4-(dimethylamino)phenyl)hexa-1,3,5-trien-1-yl)-2-methylimidazo[1,2-a]pyrazin-3(7H)-one]

Compound: Cc1ccc2c(c1)sc(-c1ccc(N(C)C)cc1)[n+]2C.[Cl-] [ThT, Thioflavin T]
difference lower than the difference provided by ADLumin-1 (PA-K2): 11.8 fold
fluorescence difference between PA-K and PA-K2 (PA-K2; ThT 0.01 mg/ml): about 4.01 fold
peptide concentration at which the difference PA-K vs PA-K2 is detected (PA-K2; fluorescence): 0.1 mg/mL
ThT signal for misfoldons in serum (misfoldons in serum): slightly higher signal

Compound: MCLA [reference compound]
chemiluminescence signal with Aβs (Aβ40 aggregates): significantly reduced signal

Compound: firefly luciferin [reference compound]
emission peak (FWHM comparison) [1]: 570 nm
full width at half-maximum (FWHM) [1]: 83 nm
